According to US20260001928A1 (CORTERIA PHARMACEUTICALS, priority 2022, published 2026):
pEC50: −log10 of the molar value. *1 amine or outer side, *2 acyl side, *3 side chain or, on linkers, in order; H or OH if unused. Where a SMILES comes first, the peptide text is derived from it. Side-chain parts run from the residue outwards. [ ]: non-standard residue; d: D form. The star is where a group is joined. C18 diacid = O=C(O)CCCCCCCCCCCCCCCCC(=O)*; γGlu = O=C(O)[C@H](CCC(=O)[*:2])N[*:1]; C12 diacid = O=C(O)CCCCCCCCCCC(=O)*; NMeI = CC[C@H](C)[C@H](NC)C(=O)O; Api = NC1(C(=O)O)CCNCC1; Pentanoyl = CCCCC(=O)*; Aib = CC(C)(N)C(=O)O

How the values were obtained:
human CRF2a receptor = target: T1, human CRF2a receptor (Homo sapiens, UniProt Q13324); assay: Activity at human CRF2a receptor, cAMP functional assay in TeloHEAC cells; assay type: cell-based; conditions: TeloHEAC cells stably expressing human CRF2a receptor, relative to urocortin 2 (100 nM = 100%)
T1 construct: expressed in transfected cells; host or cells: TeloHEAC cells
T1 sequence (Q13324 1-411): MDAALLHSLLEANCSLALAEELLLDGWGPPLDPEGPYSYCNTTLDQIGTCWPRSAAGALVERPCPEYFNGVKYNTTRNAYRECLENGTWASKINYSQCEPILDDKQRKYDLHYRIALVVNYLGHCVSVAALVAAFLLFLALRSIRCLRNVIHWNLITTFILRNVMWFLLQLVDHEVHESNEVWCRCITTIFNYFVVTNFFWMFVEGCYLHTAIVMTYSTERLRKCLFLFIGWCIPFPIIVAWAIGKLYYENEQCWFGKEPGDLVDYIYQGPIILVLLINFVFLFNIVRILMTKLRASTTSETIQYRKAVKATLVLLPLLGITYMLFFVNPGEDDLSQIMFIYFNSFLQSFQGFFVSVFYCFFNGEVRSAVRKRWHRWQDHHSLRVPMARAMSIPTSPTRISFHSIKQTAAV
Summary of the method: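 TeloHEAC cells stably expressing human CRF2a (10000 cells/well) were treated with 16-point 1:2 compound dilutions in HBSS/20 mM HEPES with IBMX for 30 min at 37° C. cAMP was read by HTRF (665/620 nm ratio). EC50 was the concentration giving 50% activation, with 100 nM urocortin 2 set as 100%.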

CFR1R receptor = target: T2, CFR1R receptor (Homo sapiens, UniProt P34998); assay: Activity at anti-target CFR1R receptor, cAMP assay in CRF1R-overexpression CHO-K1 cells; assay type: cell-based; conditions: 100% = Sauvagine at 100 nM; for pEC50: cAMP
T2 construct: host or cells: CHO-K1 (clone 2)
T2 sequence (P34998 24-415): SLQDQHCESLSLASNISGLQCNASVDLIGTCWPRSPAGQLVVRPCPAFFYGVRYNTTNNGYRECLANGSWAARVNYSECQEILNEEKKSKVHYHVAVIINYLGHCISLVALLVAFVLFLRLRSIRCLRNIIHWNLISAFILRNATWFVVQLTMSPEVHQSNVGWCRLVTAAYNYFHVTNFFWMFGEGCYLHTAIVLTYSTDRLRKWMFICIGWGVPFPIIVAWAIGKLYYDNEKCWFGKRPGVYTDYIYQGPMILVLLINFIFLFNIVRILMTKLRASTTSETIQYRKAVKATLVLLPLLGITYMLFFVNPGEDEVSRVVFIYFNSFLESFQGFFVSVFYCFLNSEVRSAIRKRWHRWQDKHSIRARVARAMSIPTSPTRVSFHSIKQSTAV
Summary of the method: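 Grow clone 2 to near confluence at 37° C. under 5% CO2 in F12 (Hams) with 10% FBS and G418, harvest, and freeze in 10% DMSO. Thaw and plate at 4000 cells/well. Then proceed per the TeloHAEC method, normalising to Sauvagine 100 nM as maximum.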

| pEC50 (human CRF2a receptor) | Emax (% I) (CFR1R receptor) | pEC50 (CFR1R receptor) | SMILES |
| --- | --- | --- | --- |
| 8.61 | 11 | < 6.60 | CC[C@H](C)[C@H](NC(C)=O)C(=O)N[C@H](C(=O)N[C@@H](CC(C)C)C(=O)N[C@@H](CO)C(=O)N[C@@H](CC(C)C)C(=O)N[C@@H](CC(=O)O)C(=O)N[C@@H](C(=O)N1CCC[C@H]1C(=O)N[C@H](C(=O)N[C@@H](CCCCN)C(=O)N[C@@H](CC(C)C)C(=O)N[C@@H](CCCCNC(=O)CC[C@H](NC(=O)CCCCCCCCCCC(=O)O)C(=O)O)C(=O)N[C@@H](CCCCN)C(=O)N[C@H](C(=O)N[C@@H](CC(C)C)C(=O)N[C@@H](CC(C)C)C(=O)N[C@@H](CCC(=O)O)C(=O)N[C@@H](CCC(N)=O)C(=O)N[C@@H](CCC(=O)O)C(=O)N[C@@H](CCCCN)C(=O)N[C@@H](CCC(N)=O)C(=O)N[C@@H](CCCCN)C(=O)N[C@@H](CCCCN)C(=O)N[C@@H](CCC(N)=O)C(=O)N[C@@H](CCCNC(=N)N)C(=O)N[C@@H](CCC(=O)O)C(=O)N[C@@H](CCC(N)=O)C(=O)N[C@@H](C)C(=O)N[C@@H](CCC(=O)O)C(=O)N[C@H](C(=O)N[C@@H](CC(N)=O)C(=O)NC1(C(=O)N[C@@H](CCC(N)=O)C(=O)N[C@H](C(=O)N[C@@H](CC(C)C)C(=O)N[C@@H](C)C(=O)N[C@@H](CCC(N)=O)C(=O)N[C@H](C(N)=O)C(C)C)[C@@H](C)CC)CCNCC1)[C@@H](C)O)[C@@H](C)CC)[C@@H](C)CC)C(C)C)C(C)C [compound 183] (Ac-IVLSLD[dV]PIKLK([γGlu-C12 diacid])KILLEQEKQKKQREQAETN[Api]QILAQV-NH2) |
| 8.37 | 3 | < 6.60 | CC[C@H](C)[C@H](NC(C)=O)C(=O)N[C@H](C(=O)N[C@@H](CC(C)C)C(=O)N[C@@H](CO)C(=O)N[C@@H](CC(C)C)C(=O)N[C@@H](CC(=O)O)C(=O)N[C@@H](C(=O)N1CCC[C@H]1C(=O)N[C@H](C(=O)N[C@@H](CCCCN)C(=O)N[C@@H](CC(C)C)C(=O)N[C@@H](CCCCNC(=O)CC[C@H](NC(=O)CCCCCCCCCCC(=O)O)C(=O)O)C(=O)N[C@@H](CCCCN)C(=O)N[C@H](C(=O)N[C@@H](CC(C)C)C(=O)N[C@@H](CC(C)C)C(=O)N[C@@H](CCC(=O)O)C(=O)N[C@@H](CCC(N)=O)C(=O)N[C@@H](CCC(=O)O)C(=O)N[C@@H](CCCCN)C(=O)N[C@@H](CCC(N)=O)C(=O)N[C@@H](CCCCN)C(=O)NC(C)(C)C(=O)N[C@@H](CCC(N)=O)C(=O)N[C@@H](CCCNC(=N)N)C(=O)N[C@@H](CCC(=O)O)C(=O)N[C@@H](CCC(N)=O)C(=O)N[C@@H](C)C(=O)N[C@@H](CCC(=O)O)C(=O)N[C@H](C(=O)N[C@@H](CC(N)=O)C(=O)NC1(C(=O)N[C@@H](CCC(N)=O)C(=O)N[C@H](C(=O)N[C@@H](CC(C)C)C(=O)N[C@@H](C)C(=O)N[C@@H](CCC(N)=O)C(=O)N[C@H](C(N)=O)C(C)C)[C@@H](C)CC)CCNCC1)[C@@H](C)O)[C@@H](C)CC)[C@@H](C)CC)C(C)C)C(C)C [compound 184] (Ac-IVLSLD[dV]PIKLK([γGlu-C12 diacid])KILLEQEKQK[Aib]QREQAETN[Api]QILAQV-NH2) |
| 8.45 | 2 | < 6.60 | CCCCC(=O)N[C@H](C(=O)N[C@@H](CC(C)C)C(=O)N[C@@H](CO)C(=O)N[C@@H](CC(C)C)C(=O)N[C@@H](CC(=O)O)C(=O)N[C@@H](C(=O)N1CCC[C@H]1C(=O)N[C@H](C(=O)N[C@@H](CCCCN)C(=O)N[C@@H](CC(C)C)C(=O)N[C@@H](CCCCNC(=O)CC[C@H](NC(=O)CCCCCCCCCCC(=O)O)C(=O)O)C(=O)N[C@@H](CCCCN)C(=O)N[C@H](C(=O)N[C@@H](CC(C)C)C(=O)N[C@@H](CC(C)C)C(=O)N[C@@H](CCC(=O)O)C(=O)N[C@@H](CCC(N)=O)C(=O)N[C@@H](CCC(=O)O)C(=O)N[C@@H](CCCCN)C(=O)N[C@@H](CCC(N)=O)C(=O)N[C@@H](CCCCN)C(=O)N[C@@H](CCCCN)C(=O)N[C@@H](CCC(N)=O)C(=O)N[C@@H](CCCNC(=N)N)C(=O)N[C@@H](CCC(=O)O)C(=O)N[C@@H](CCC(N)=O)C(=O)N[C@@H](C)C(=O)N[C@@H](CCC(=O)O)C(=O)N[C@H](C(=O)N[C@@H](CC(N)=O)C(=O)NC(C)(C)C(=O)N[C@@H](CCC(N)=O)C(=O)N[C@H](C(=O)N[C@@H](CC(C)C)C(=O)N[C@@H](C)C(=O)N[C@@H](CCC(N)=O)C(=O)N[C@H](C(N)=O)C(C)C)[C@@H](C)CC)[C@@H](C)O)[C@@H](C)CC)[C@@H](C)CC)C(C)C)C(C)C [compound 185] (Pentanoyl-VLSLD[dV]PIKLK([γGlu-C12 diacid])KILLEQEKQKKQREQAETN[Aib]QILAQV-NH2) |
| 9.10 | 2 | < 6.60 | CC[C@H](C)[C@H](NC)C(=O)N[C@H](C(=O)N[C@@H](CC(C)C)C(=O)N[C@@H](CO)C(=O)N[C@@H](CC(C)C)C(=O)N[C@@H](CC(=O)O)C(=O)N[C@@H](C(=O)N1CCC[C@H]1C(=O)N[C@H](C(=O)N[C@@H](CCCCN)C(=O)N[C@@H](CC(C)C)C(=O)N[C@@H](CCCCNC(=O)CC[C@H](NC(=O)CCCCCCCCCCC(=O)O)C(=O)O)C(=O)N[C@@H](CCCCN)C(=O)N[C@H](C(=O)N[C@@H](CC(C)C)C(=O)N[C@@H](CC(C)C)C(=O)N[C@@H](CCC(=O)O)C(=O)N[C@@H](CCC(N)=O)C(=O)N[C@@H](CCC(=O)O)C(=O)N[C@@H](CCCCN)C(=O)N[C@@H](CCC(N)=O)C(=O)N[C@@H](CCCCN)C(=O)N[C@@H](CCCCN)C(=O)N[C@@H](CCC(N)=O)C(=O)N[C@@H](CCCNC(=N)N)C(=O)N[C@@H](CCC(=O)O)C(=O)N[C@@H](CCC(N)=O)C(=O)N[C@@H](C)C(=O)N[C@@H](CCC(=O)O)C(=O)N[C@H](C(=O)N[C@@H](CC(N)=O)C(=O)NC(C)(C)C(=O)N[C@@H](CCC(N)=O)C(=O)N[C@H](C(=O)N[C@@H](CC(C)C)C(=O)N[C@@H](C)C(=O)N[C@@H](CCC(N)=O)C(=O)N[C@H](C(N)=O)C(C)C)[C@@H](C)CC)[C@@H](C)O)[C@@H](C)CC)[C@@H](C)CC)C(C)C)C(C)C [compound 186] (H-[NMeI]VLSLD[dV]PIKLK([γGlu-C12 diacid])KILLEQEKQKKQREQAETN[Aib]QILAQV-NH2) |
| 9.74 | 54 | – | CC[C@H](C)[C@H](NC(C)=O)C(=O)N[C@H](C(=O)N[C@@H](CC(C)C)C(=O)N[C@@H](CO)C(=O)N[C@@H](CC(C)C)C(=O)N[C@@H](CC(=O)O)C(=O)N[C@@H](C(=O)N1CCC[C@H]1C(=O)N[C@H](C(=O)NCC(=O)N[C@@H](CC(C)C)C(=O)N[C@@H](CCCCNC(=O)CC[C@H](NC(=O)CCCCCCCCCCCCCCCCC(=O)O)C(=O)O)C(=O)N[C@@H](CCCCN)C(=O)N[C@H](C(=O)N[C@@H](CC(C)C)C(=O)N[C@@H](CC(C)C)C(=O)N[C@@H](CCC(=O)O)C(=O)N[C@@H](CCC(N)=O)C(=O)N[C@@H](CCC(=O)O)C(=O)N[C@@H](CCCCN)C(=O)N[C@@H](CCC(N)=O)C(=O)N[C@@H](CCCCN)C(=O)N[C@@H](CCCCN)C(=O)N[C@@H](CCC(N)=O)C(=O)N[C@@H](CCCNC(=N)N)C(=O)N[C@@H](CCC(=O)O)C(=O)N[C@@H](CCC(N)=O)C(=O)N[C@@H](C)C(=O)N[C@@H](CCC(=O)O)C(=O)N[C@H](C(=O)N[C@@H](CC(N)=O)C(=O)NC(C)(C)C(=O)N[C@@H](CCC(N)=O)C(=O)N[C@H](C(=O)N[C@@H](CC(C)C)C(=O)N[C@@H](C)C(=O)N[C@@H](CCC(N)=O)C(=O)N[C@H](C(N)=O)C(C)C)[C@@H](C)CC)[C@@H](C)O)[C@@H](C)CC)[C@@H](C)CC)C(C)C)C(C)C [compound 191] (Ac-IVLSLD[dV]PIGLK([γGlu-C18 diacid])KILLEQEKQKKQREQAETN[Aib]QILAQV-NH2) |
